We go through 33 compounds from US8497380B2, “Substituted acetophenones useful as PDE4 inhibitors” (Leo Pharma A/S, priority 2006, dated 2013).

A value given as a limit tells only on which side of the number the result lay.

The assay relates to Human peripheral blood mononuclear cells (PBMC). The assay is described as follows: TNFalfa-Release. In kind it is cell-based. To be noted: inhibition of TNF-a secretion, PBMC pre-incubated 30 minutes, stimulated 18 hours with lipopolysaccharide. In a few lines:
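Buffy-coat PBMC at 5×105 c/ml in RPMI1640 with 2% FCS were pre-incubated 30 min with compound, then stimulated 18 h with LPS 1 mg/ml. Supernatant TNF-a measured by enzyme immunoassay; pIC50 from inhibition curves relative to LPS-stimulated and unstimulated wells.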
Turning to `COc1ccc(C(=O)Cc2c(Cl)cncc2Cl)c(OCC(=O)Nc2ccccc2)c1OC` [Compound 205, 2-{6-[2-(3,5-Dichloro-pyridin-4-yl)-acetyl]-2,3-dimethoxy-phenoxy}-N-phenyl-acetamide], the IC50 is less than 1000 nM. In the case of `COc1ccc(C(=O)Cc2c(Cl)cncc2Cl)c(OCC(=O)NCc2ccccn2)c1OC` [Compound 229, 2-{6-[2-(3,5-Dichloro-pyridin-4-yl)-acetyl]-2,3-dimethoxy-phenoxy}-N-pyridin-2-ylmethyl-acetamide] it was less than 1000 nM; in that of `COc1ccc(C(=O)Cc2c(Cl)cncc2Cl)c(OCC(=O)OC(C)C)c1OC` [Compound 133, {6-[2-(3,5-Dichloro-pyridin-4-yl)-acetyl]-2,3-dimethoxy-phenoxy}-acetic acid isopropyl ester], less than 1000 nM; in that of `CCCNC(=O)COc1c(C(=O)Cc2ccncc2)ccc(OC)c1OC` [Compound 289, 2-(2,3-Dimethoxy-6-(2-pyridin-4-yl-acetyl)-phenoxy)-N-propyl-acetamide], less than 1000 nM. Take `CCOc1c(OC)ccc(C(=O)Cc2c(Cl)cncc2Cl)c1OCC(=O)OCc1ccccc1` [Compound 265, {6-[2-(3,5-Dichloro-pyridin-4-yl)-acetyl]-2-ethoxy-3-methoxy-phenoxy}-acetic acid benzyl ester]: the half-maximal inhibitory concentration (IC50) is less than 1000 nM. On to `COc1ccc(C(=O)Cc2c(Cl)cncc2Cl)c(OCC(=O)NCc2cccs2)c1OC` [Compound 254, 2-{6-[2-(3,5-Dichloro-pyridin-4-yl)-acetyl]-2,3-dimethoxy-phenoxy}-N-thiophen-2-ylmethyl-acetamide], for which the IC50 was less than 1000 nM.

Regarding `COc1ccc(C(=O)Cc2c(Cl)cncc2Cl)c(OCC2CCCCC2)c1OC` [Compound 151, 1-(2-Cyclohexylmethoxy-3,4-dimethoxy-phenyl)-2-(3,5-dichloro-pyridin-4-yl)-ethanone], the IC50 was less than 1000 nM.

`COc1ccc(C(=O)Cc2c(Cl)cncc2Cl)c(OCc2ccccc2F)c1OC` [Compound 161, 2-(3,5-Dichloro-pyridin-4-yl)-1-[2-(2-fluoro-benzyloxy)-3,4-dimethoxy-phenyl]-ethanone] showed an IC50 of less than 1000 nM. For `COc1ccc(C(=O)Cc2c(Cl)cncc2Cl)c(OCCCc2ccccc2)c1OC` [Compound 124, 2-(3,5-Dichloro-pyridin-4-yl)-1-[3,4-dimethoxy-2-(3-phenyl-propoxy)-phenyl]-ethanone], the IC50 is less than 1000 nM. In the case of `COc1ccc(C(=O)Cc2c(Cl)cncc2Cl)c(OCc2ccccc2C#N)c1OC` [Compound 147, 2-{6-[2-(3,5-Dichloro-pyridin-4-yl)-acetyl]-2,3-dimethoxy-phenoxymethyl}-benzonitrile] it was less than 1000 nM.

As to `COc1ccc(C(=O)Cc2c(Cl)cncc2Cl)c(OCC(=O)NCCCOC(C)C)c1OC` [Compound 227, 2-{6-[2-(3,5-Dichloro-pyridin-4-yl)-acetyl]-2,3-dimethoxy-phenoxy}-N-(3-isopropoxy-propyl)-acetamide], the IC50 is less than 1000 nM. `COc1ccc(C(=O)Cc2c(Cl)c[n+]([O-])cc2Cl)c(OCC(=O)NCc2ccccc2)c1OC` [Compound 270, N-Benzyl-2-{6-[2-(3,5-dichloro-1-oxy-pyridin-4-yl)-acetyl]-2,3-dimethoxy-phenoxy}-acetamide] gave an IC50 of less than 1000 nM. As for `COc1ccc(C(=O)Cc2c(Cl)cncc2Cl)c(OCCC(C)C)c1OC` [Compound 135, 2-(3,5-Dichloro-pyridin-4-yl)-1-(3,4-dimethoxy-2-(3-methyl-butoxy)-phenyl)-ethanone], the IC50 was less than 1000 nM. In the case of `COc1ccc(C(=O)Cc2c(Cl)cncc2Cl)c(OC(C)Cc2ccccc2)c1OC` (stereo not drawn) [Compound 285, 2-(3,5-Dichloro-pyridin-4-yl)-1-[3,4-dimethoxy-2-(1-methyl-2-phenyl-ethoxy)-phenyl]-ethanone] it was less than 1000 nM; in that of `COc1ccc(C(=O)Cc2c(Cl)cncc2Cl)c(OCC(=O)NCCc2ccccc2)c1OC` [Compound 241, 2-{6-[2-(3,5-Dichloro-pyridin-4-yl)-acetyl]-2,3-dimethoxy-phenoxy}-N-phenethyl-acetamide], less than 1000 nM. Then `COc1ccc(C(=O)Cc2c(Cl)cncc2Cl)c(OCC(=O)N[C@H](C)c2ccccc2)c1OC` [Compound 221, (R)-2-{6-[2-(3,5-Dichloro-pyridin-4-yl)-acetyl]-2,3-dimethoxy-phenoxy}-N-(1-phenyl-ethyl)-acetamide], with less than 1000 nM; and `COc1ccc(C(=O)Cc2c(Cl)cncc2Cl)c(OCCCN2C(=O)c3ccccc3C2=O)c1OC` [Compound 186, 2-(3-{6-[2-(3,5-Dichloro-pyridin-4-yl)-acetyl]-2,3-dimethoxy-phenoxy}-propyl)-isoindole-1,3-dione], with less than 1000 nM. In turn, `COc1ccc(C(=O)Cc2c(Cl)cncc2Cl)c(OCC(=O)NCC(C)(C)C)c1OC` [Compound 214] gave an IC50 of less than 1000 nM. Compound `COc1ccc(C(=O)Cc2c(Cl)c[n+]([O-])cc2Cl)c(OCCc2ccccc2)c1OC` [Compound 271, 2-(3,5-Dichloro-1-oxy-pyridin-4-yl)-1-(3,4-dimethoxy-2-phenethyloxy-phenyl)-ethanone] showed an IC50 of less than 1000 nM. For `COc1ccc(C(=O)Cc2c(Cl)cncc2Cl)c(OCCO)c1OC` [Compound 155, 2-(3,5-Dichloro-pyridin-4-yl)-1-[2-(2-hydroxy-ethoxy)-3,4-dimethoxy-phenyl]-ethanone], the half-inhibitory concentration (IC50) is less than 1000 nM. In the case of `COc1ccc(C(=O)Cc2c(Cl)cncc2Cl)c(OCc2cccc(C(F)(F)F)c2)c1OC` [Compound 162, 2-(3,5-Dichloro-pyridin-4-yl)-1-[3,4-dimethoxy-2-(3-trifluoromethyl-benzyloxy)-phenyl]-ethanone], the IC50 is less than 1000 nM. Then `CCOc1c(OC)ccc(C(=O)Cc2c(Cl)cncc2Cl)c1OC` [Compound 188, 2-(3,5-Dichloro-pyridin-4-yl)-1-(3-ethoxy-2,4-dimethoxy-phenyl)-ethanone], with less than 1000 nM; and `C=CCCCOc1c(C(=O)Cc2c(Cl)cncc2Cl)ccc(OC)c1OC` [Compound 138, 2-(3,5-Dichloro-pyridin-4-yl)-1-(3,4-dimethoxy-2-pent-4-enyloxy-phenyl)-ethanone], with less than 1000 nM; and `COc1ccc(C(=O)Cc2c(Cl)cncc2Cl)c(OCCOc2ccc(Cl)cc2)c1OC` [Compound 153, 1-{2-[2-(4-Chloro-phenoxy)-ethoxy]-3,4-dimethoxy-phenyl}-2-(3,5-dichloro-pyridin-4-yl)-ethanone], with less than 1000 nM.

The compound `COc1ccc(CCOc2c(C(=O)Cc3c(Cl)cncc3Cl)ccc(OC)c2OC)cc1OC` [Compound 131, 2-(3,5-Dichloro-pyridin-4-yl)-1-{2-[2-(3,4-dimethoxy-phenyl)-ethoxy]-3,4-dimethoxy-phenyl}-ethanone] gave an IC50 of less than 1000 nM.

`COc1ccc(C(=O)Cc2c(Cl)cncc2Cl)c(OCc2ccccc2Cl)c1OC` [Compound 176, 1-[2-(2-Chloro-benzyloxy)-3,4-dimethoxy-phenyl]-2-(3,5-dichloro-pyridin-4-yl)-ethanone] showed an IC50 of less than 1000 nM. For `COc1ccc(C(=O)Cc2c(Cl)cncc2Cl)c(OCc2cccc(C#N)c2)c1OC` [Compound 152, 3-{6-[2-(3,5-Dichloro-pyridin-4-yl)-acetyl]-2,3-dimethoxy-phenoxymethyl}-benzonitrile], the IC50 is less than 1000 nM. The compound `COc1ccc(C(=O)Cc2c(Cl)cncc2Cl)c(OCC(=O)NCCOc2ccccc2)c1OC` [Compound 231, 2-{6-[2-(3,5-Dichloro-pyridin-4-yl)-acetyl]-2,3-dimethoxy-phenoxy}-N-(2-phenoxy-ethyl)-acetamide] gave an IC50 of less than 1000 nM.

In the case of `COc1ccc(C(=O)Cc2c(Cl)cncc2Cl)c(OCC=C(C)C)c1OC` [Compound 111, 2-(3,5-Dichloro-pyridin-4-yl)-1-[3,4-dimethoxy-2-(3-methyl-but-2-enyloxy)-phenyl]-ethanone], the IC50 was less than 1000 nM. `COc1ccc(C(=O)Cc2c(Cl)cncc2Cl)c(OCCOc2ccccc2)c1OC` [Compound 122, 2-(3,5-Dichloro-pyridin-4-yl)-1-[3,4-dimethoxy-2-(2-phenoxy-ethoxy)-phenyl]-ethanone]: the IC50 is less than 1000 nM. For the compound `COc1ccc(C(=O)Cc2c(Cl)cncc2Cl)c(OCCc2ccc(Cl)cc2)c1OC` [Compound 120, 1-{2-[2-(4-Chloro-phenyl)-ethoxy]-3,4-dimethoxy-phenyl}-2-(3,5-dichloro-pyridin-4-yl)-ethanone], the half-maximal inhibitory concentration (IC50) is less than 1000 nM. `C=CCCOc1c(OC)ccc(C(=O)Cc2c(Cl)cncc2Cl)c1OCC=C` [Compound 190, 1-(2-Allyloxy-3-but-3-enyloxy-4-methoxy-phenyl)-2-(3,5-dichloro-pyridin-4-yl)-ethanone] showed an IC50 of less than 1000 nM.

Consider `COc1ccc(C(=O)Cc2c(Cl)cncc2Cl)c(OCCc2ccccn2)c1OC` [Compound 279, 2-(3,5-Dichloro-pyridin-4-yl)-1-[3,4-dimethoxy-2-(2-pyridin-2-yl-ethoxy)-phenyl]-ethanone], for which the IC50 was less than 1000 nM.

Usually IC50 stands for the concentration at which inhibition is half-maximal. A lower IC50 goes with greater potency in that assay.
